Measured values published in patent publication EP3057951B1, “METHYLENE LINKED QUINOLINYL MODULATORS OF ROR-GAMMA-T” (Janssen Pharmaceutica NV, priority 2013, dated 2015).
Counter-ions that a name gives are not always drawn. Like-named read-outs stand apart in the source and are kept apart here.

Legend:
[1] = molecular target: T1, wild type human RORγt ligand binding domain (RORyt LBD) (Homo sapiens, UniProt P51449); assay: RORγt ThermoFluor assay (thermal shift, binding affinity KD)
T1 construct: His-tag (N); TurboTEV protease cleavage site (ENLYFQG) (N); made in house; host or cells: E. coli (pHIS1, modified pET vector)
T1 sequence (P51449 258-518): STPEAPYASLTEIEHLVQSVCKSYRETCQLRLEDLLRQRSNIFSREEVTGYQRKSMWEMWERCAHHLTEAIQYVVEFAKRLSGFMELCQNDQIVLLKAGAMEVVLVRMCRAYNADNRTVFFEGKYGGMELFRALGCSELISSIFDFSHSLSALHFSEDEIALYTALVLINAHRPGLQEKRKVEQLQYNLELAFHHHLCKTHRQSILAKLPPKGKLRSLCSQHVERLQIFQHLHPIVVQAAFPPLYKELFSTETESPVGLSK

[2] = molecular target: T2, wild type human RORγt LBD (Homo sapiens, UniProt P51449); assay: RORγt (LBD) Reporter Assay (GAL4-luciferase, HEK293T cells); assay type: cell-based; conditions: for inhibition at 6 µM: HEK-293T, read-out: RORγt (LBD) Reporter Assay, % inhibition @ 6 µM, 6 µM compound concentration; for RORγt (LBD) Reporter Assay, % inhibition @ 6 µM: 6 µM compound concentration
T2 construct: expressed in transfected cells; host or cells: HEK293T
T2 sequence (P51449 258-518): T1 sequence (P51449 258-518)

[3] = HEK293T cells, value after the comma with ∼, > or < could not be included in the average

SMILES	Kd [1] [nM]	IC50 ([2]; HEK293T cells) [nM]	inhibition at 6 µM ([2]; HEK293T cells) [%]	inhibition at 6 µM [2] [%]	IC50 [2, 3] [nM]	RORγt (LBD) Reporter Assay, % inhibition @ 6 µM [2] [%]	RORγt (LBD) Reporter Assay, % inhibition @ 6 µM ([2]; HEK293T cells) [%]
Cc1cc(C(O)(c2ccc(Cl)cc2)c2cncn2C)cc2c(Cl)c(Cc3ccc(-n4cccn4)cc3)c(S(C)(=O)=O)nc12 (stereo not shown) [Example 142, {4-Chloro-8-methyl-2-(methylsulfonyl)-3-[4-(1H-pyrazol-1-yl)benzyl]quinolin-6-yl}(4-chlorophenyl)(1-methyl-1H-imidazol-5-yl)methanol]	1500	1600	87	–	–	–	–
Cc1ccc(C(O)(c2ccc3nc(NC4CC4)c(Cc4ccc(C(F)(F)F)cc4)c(Cl)c3c2)c2cnnn2C)c(C)n1 (stereo not shown) [Example 143a, {4-Chloro-2-(cyclopropylamino)-3-[4-(trifluoromethyl)benzyl]quinolin-6-yl}(2,6-dimethylpyridin-3-yl)(1-methyl-1H-1,2,3-triazol-5-yl)methanol]	7.2	–	101	–	–	–	–
Cc1cc(C(O)(c2ccc(C(F)(F)F)nc2)c2cncn2C)cc2c(Cl)c(Cc3ccc(-n4cccn4)cc3)c(N3CCC3)nc12 (stereo not shown) [Example 137a, {2-Azetidin-1-yl-4-chloro-8-methyl-3-[4-(1H-pyrazol-1-yl)benzyl]quinolin-6-yl}(1-methyl-1H-imidazol-5-yl)[6-(trifluoromethyl)pyridin-3-yl]methanol]	9	170	97	–	–	–	–
COC1CN(c2nc3ccc(C(O)(c4ccc(C(F)(F)F)nc4)c4cncn4C)cc3c(Cl)c2Cc2ccc(-n3cccn3)cc2)C1 (single isomer, unassigned) [Example 133b, {4-Chloro-2-(3-methoxyazetidin-1-yl)-3-[4-(1H-pyrazol-1-yl)benzyl]quinolin-6-yl}(1-methyl-1H-imidazol-5-yl)[6-(trifluoromethyl)pyridin-3-yl]methanol]	330	840	99	–	–	–	–
COc1nc2ccc(C(O)(c3ccc(F)cc3)c3cccnc3)cc2c(Cl)c1Cc1ccc(-n2cccn2)cc1 (stereo not shown) [Example 158a, (3-(4-(1H-Pyrazol-1-yl)benzyl)-4-chloro-2-methoxyquinolin-6-yl)(4-fluorophenyl)(pyridin-3-yl)methanol]	21	57	97	–	–	–	–
Cc1ccc(C(O)(c2ccc3nc(NC4CC4)c(Cc4ccc(C(F)(F)F)cc4)c(Cl)c3c2)c2cnnn2C)c(C)n1 (single isomer, unassigned) [Example 143c, {4-Chloro-2-(cyclopropylamino)-3-[4-(trifluoromethyl)benzyl]quinolin-6-yl}(2,6-dimethylpyridin-3-yl)(1-methyl-1H-1,2,3-triazol-5-yl)methanol]	2.2	~10	–	–	–	–	102
Cn1cncc1C(O)(c1ccc2nc(C(F)(F)F)c(Cc3ccccc3)c(Cl)c2c1)c1ccccn1 (stereo not shown) [Example 97, (3-Benzyl-4-chloro-2-(trifluoromethyl)quinolin-6-yl)(1-methyl-1H-imidazol-5-yl)(pyridin-2-yl)methanol•TFA]	67	–	–	96	200	–	–
Cc1cc(C(O)(c2ccc(C(F)(F)F)nc2)c2cncn2C)cc2c(Cl)c(Cc3ccc(-n4cccn4)cc3)c(N3CCC3)nc12 (single isomer, unassigned) [Example 137c, {2-Azetidin-1-yl-4-chloro-8-methyl-3-[4-(1H-pyrazol-1-yl)benzyl]quinolin-6-yl}(1-methyl-1H-imidazol-5-yl)[6-(trifluoromethyl)pyridin-3-yl]methanol]	4.5	140	–	–	–	–	94
CC(=O)N1CCC(C(O)(c2ccccc2)c2ccc3nc(C)c(Cc4ccc(C(F)(F)F)cc4)c(Cl)c3c2)CC1 (stereo not shown) [Example 27a, 1-(4-((4-Chloro-2-methyl-3-(4-(trifluoromethyl)benzyl)quinolin-6-yl)(hydroxy)(phenyl)methyl)piperidin-1-yl)ethanone]	1.4	–	–	101	4.4	–	–
COc1nc2ccc(C(O)(c3ccc(F)cc3)c3cncn3C)cc2c(Cl)c1Cc1ccc(-n2cccn2)cc1 (stereo not shown) [Example 160a, (3-(4-(1H-Pyrazol-1-yl)benzyl)-4-chloro-2-methoxyquinolin-6-yl)(4-fluorophenyl)(1-methyl-1H-imidazol-5-yl)methanol]	49	59	112	–	–	–	–

Other lines, results leading:

Kd [1] [nM]	IC50 ([2]; HEK293T cells) [nM]	inhibition at 6 µM ([2]; HEK293T cells) [%]	inhibition at 6 µM [2] [%]	IC50 [2, 3] [nM]	RORγt (LBD) Reporter Assay, % inhibition @ 6 µM [2] [%]	RORγt (LBD) Reporter Assay, % inhibition @ 6 µM ([2]; HEK293T cells) [%]	SMILES
48	–	–	84	–	–	–	COc1c(Cc2ccccc2)c(C(F)(F)F)nc2ccc(C(O)(c3ccc(C(F)(F)F)nc3)c3cncn3C)cc12 (stereo not shown) [Example 106a, (3-Benzyl-4-methoxy-2-(trifluoromethyl)quinolin-6-yl)(1-methyl-1H-imidazol-5-yl)(6-(trifluoromethyl)pyridin-3-yl)methanol•TFA]
3.1	–	–	98	~10	–	–	COc1nc2ccc(C(O)(c3cnnn3C)C3CCN(C(C)=O)CC3)cc2c(Cl)c1Cc1ccc(C(F)(F)F)cc1 (racemic) [Example 74a, 1-(4-((4-Chloro-2-methoxy-3-(4-(trifluoromethyl)benzyl)quinolin-6-yl)(hydroxy)(1-methyl-1H-1,2,3-triazol-5-yl)methyl)piperidin-1-yl)ethanone]
110	–	–	101	130	–	–	COc1nc2ccc(C(O)(c3cncn3C)C3CCOCC3)cc2c(C#N)c1Cc1ccc(-n2cccn2)cc1 (stereo not shown) [Example 2b, 3-(4-(1H-Pyrazol-1-yl)benzyl)-6-(hydroxy(1-methyl-1H-imidazol-5-yl)(tetrahydro-2H-pyran-4-yl)methyl)-2-methoxyquinoline-4-carbonitrile]
220	420	101	–	–	–	–	Cn1cncc1C(O)(c1ccc(C(F)(F)F)nc1)c1ccc2nc(N3CC(O)C3)c(Cc3ccc(-n4cccn4)cc3)c(Cl)c2c1 (single isomer, unassigned) [Example 134b, 1-(4-Chloro-6-{hydroxy(1-methyl-1H-imidazol-5-yl)[6-(trifluoromethyl)pyridin-3-yl]methyl}-3-[4-(1H-pyrazol-1-yl)benzyl]quinolin-2-yl)azetidin-3-ol]
9.4	–	–	81	33	–	–	Cn1cncc1C(O)(c1ccc(Cl)cc1)c1ccc2nc(C(F)(F)F)c(Cc3ccccc3)c(C#N)c2c1 (stereo not shown) [Example 103, 3-Benzyl-6-((4-chlorophenyl)(hydroxy)(1-methyl-1H-imidazol-5-yl)methyl)-2-(trifluoromethyl)quinoline-4-carbonitrile•TFA]
56	460	97	–	–	–	–	Cc1ccc(C(O)(c2ccc3nc(N4CC(F)(F)C4)c(Cc4ccc(C(F)(F)F)cc4)c(Cl)c3c2)c2cnnn2C)c(C)n1 (single isomer, unassigned) [Example 148b, {4-Chloro-2-(3,3-difluoroazetidin-1-yl)-3-[4-(trifluoromethyl)benzyl]quinolin-6-yl}(2,6-dimethylpyridin-3-yl)(1-methyl-1H-1,2,3-triazol-5-yl)methanol]
48	–	–	–	680	74	–	Cn1cncc1C(O)(c1ccc(C(F)(F)F)nc1)c1ccc2nc(C#N)c(Cc3ccc(F)cc3)c(C#N)c2c1 (single isomer, unassigned) [Example 53c, 3-(4-Fluorobenzyl)-6-(hydroxy(1-methyl-1H-imidazol-5-yl)(6-(trifluoromethyl)pyridin-3-yl)methyl)quinoline-2,4-dicarbonitrile]
0.31	–	–	99	1.3	–	–	COc1nc2ccc(C(O)(c3cnnn3C)C3CCOCC3)cc2c(Cl)c1Cc1ccc(C(F)(F)F)cc1 (single isomer, unassigned) [Example 85b, (4-Chloro-2-methoxy-3-(4-(trifluoromethyl)benzyl)quinolin-6-yl)(1-methyl-1H-1,2,3-triazol-5-yl)(tetrahydro-2H-pyran-4-yl)methanol]
22000	–	–	–	~5000	92	–	Cn1cc(-c2nc3ccc(C(O)(c4ccc(C(F)(F)F)nc4)c4cncn4C)cc3c(Cl)c2Cc2ccccc2)cn1 (single isomer, unassigned) [Example 111c, (3-Benzyl-4-chloro-2-(1-methyl-1H-pyrazol-4-yl)quinolin-6-yl)(1-methyl-1H-imidazol-5-yl)(6-(trifluoromethyl)pyridin-3-yl)methanol]
5.5	–	–	–	24	106	–	COc1nc2ccc(C(O)(c3ccc(C#N)cc3)c3cncn3C)cc2c(Cl)c1Cc1ccc(-n2cncn2)cc1 (single isomer, unassigned) [Example 14c, 4-((3-(4-(1H-1,2,4-Triazol-1-yl)benzyl)-4-chloro-2-methoxyquinolin-6-yl)(hydroxy)(1-methyl-1H-imidazol-5-yl)methyl)benzonitrile]
5.5	52	–	–	–	–	101	COc1nc2ccc(C(O)(c3ccc(C)nc3C)c3cnnn3C)cc2c(Cl)c1Cc1ccc(S(C)(=O)=O)cc1 (single isomer, unassigned) [Example 117c, (4-Chloro-2-methoxy-3-(4-(methylsulfonyl)benzyl)quinolin-6-yl)(2,6-dimethylpyridin-3-yl)(1-methyl-1H-1,2,3-triazol-5-yl)methanol]
